Laboratory results from ChEMBL document CHEMBL5634115, “Exploring novel anticancer pyrazole benzenesulfonamides featuring tail approach strategy as carbonic anhydrase inhibitors” (Eur J Med Chem, 2023).

Legend:
Experiment in all cases: cells
SR = assay type: functional; details: Homo sapiens, time 48 hrs
Description: Growth inhibition of human SR cells measured after 48 hrs by sulforhodamine B assay

HOP-92 = assay type: functional; details: Homo sapiens, time 48 hrs
Description: Growth inhibition of human HOP-92 cells measured after 48 hrs by sulforhodamine B assay

NCI-H322M [1] = assay type: functional; details: Homo sapiens, time 48 hrs
Description: Growth inhibition of human NCI-H322M cells measured after 48 hrs by sulforhodamine B assay

NCI-H522 = assay type: functional; details: Homo sapiens, time 48 hrs
Description: Growth inhibition of human NCI-H522 cells measured after 48 hrs by sulforhodamine B assay

HCT-116 [2] = assay type: functional; details: Homo sapiens, time 48 hrs
Description: Growth inhibition of human HCT-116 cells measured after 48 hrs by sulforhodamine B assay

HCT-15 = assay type: functional; details: Homo sapiens, time 48 hrs
Description: Growth inhibition of human HCT-15 cells measured after 48 hrs by sulforhodamine B assay

HT-29 [3] = assay type: functional; details: Homo sapiens, time 48 hrs
Description: Growth inhibition of human HT-29 cells measured after 48 hrs by sulforhodamine B assay

SW-620 [4] = assay type: functional; details: Homo sapiens, time 48 hrs
Description: Growth inhibition of human SW620 cells measured after 48 hrs by sulforhodamine B assay

SF-268 [5] = assay type: functional; details: Homo sapiens, time 48 hrs
Description: Growth inhibition of human SF-268 cells measured after 48 hrs by sulforhodamine B assay

SF-295 [6] = assay type: functional; details: Homo sapiens, time 48 hrs
Description: Growth inhibition of human SF-295 cells measured after 48 hrs by sulforhodamine B assay

LOX IMVI = assay type: functional; details: Homo sapiens, time 48 hrs
Description: Growth inhibition of human LOX IMVI cells measured after 48 hrs by sulforhodamine B assay

M14 [7] = assay type: functional; details: Homo sapiens, time 48 hrs
Description: Growth inhibition of human M14 cells measured after 48 hrs by sulforhodamine B assay

SK-MEL-2 = assay type: functional; details: Homo sapiens, time 48 hrs
Description: Growth inhibition of human SK-MEL-2 cells measured after 48 hrs by sulforhodamine B assay

SK-MEL-5 [8] = assay type: functional; details: Homo sapiens, time 48 hrs
Description: Growth inhibition of human SK-MEL-5 cells measured after 48 hrs by sulforhodamine B assay

OVCAR-3 [9] = assay type: functional; details: Homo sapiens, time 48 hrs
Description: Growth inhibition of human OVCAR-3 cells measured after 48 hrs by sulforhodamine B assay

OVCAR-4 = assay type: functional; details: Homo sapiens, time 48 hrs
Description: Growth inhibition of human OVCAR-4 cells measured after 48 hrs by sulforhodamine B assay

OVCAR-5 = assay type: functional; details: Homo sapiens, time 48 hrs
Description: Growth inhibition of human OVCAR-5 cells measured after 48 hrs by sulforhodamine B assay

NCI/ADR-RES [10] = assay type: functional; details: Homo sapiens, time 48 hrs
Description: Growth inhibition of human NCI/ADR-RES cells measured after 48 hrs by sulforhodamine B assay

786-0 [11] = assay type: functional; details: Homo sapiens, time 48 hrs
Description: Growth inhibition of human 786-0 cells measured after 48 hrs by sulforhodamine B assay

ACHN = assay type: functional; details: Homo sapiens, time 48 hrs
Description: Growth inhibition of human ACHN cells measured after 48 hrs by sulforhodamine B assay

CAKI-1 = assay type: functional; details: Homo sapiens, time 48 hrs
Description: Growth inhibition of human CAKI-1 cells measured after 48 hrs by sulforhodamine B assay

SN12C = assay type: functional; details: Homo sapiens, time 48 hrs
Description: Growth inhibition of human SN12C cells measured after 48 hrs by sulforhodamine B assay

UO-31 = assay type: functional; details: Homo sapiens, time 48 hrs
Description: Growth inhibition of human UO-31 cells measured after 48 hrs by sulforhodamine B assay

DU-145 [12] = assay type: functional; details: Homo sapiens, time 48 hrs
Description: Growth inhibition of human DU-145 cells measured after 48 hrs by sulforhodamine B assay

MDA-MB-231 [13] = assay type: functional; details: Homo sapiens, time 48 hrs
Description: Growth inhibition of human MDA-MB-231 cells measured after 48 hrs by sulforhodamine B assay

Hs-578T = assay type: functional; details: Homo sapiens, time 48 hrs
Description: Growth inhibition of human Hs-578T cells measured after 48 hrs by sulforhodamine B assay

BT-549 [14] = assay type: functional; details: Homo sapiens, time 48 hrs
Description: Growth inhibition of human BT-549 cells measured after 48 hrs by sulforhodamine B assay

T47D = assay type: functional; details: Homo sapiens, time 48 hrs
Description: Growth inhibition of human T47D cells measured after 48 hrs by sulforhodamine B assay

CCRF-CEM = assay type: functional; details: Homo sapiens, time 48 hrs
Description: Cytostatic activity against human CCRF-CEM cells assessed as total growth inhibition measured after 48 hrs by sulforhodamine B assay

MOLT-4 = assay type: functional; details: Homo sapiens, time 48 hrs
Description: Cytostatic activity against human MOLT-4 cells assessed as total growth inhibition measured after 48 hrs by sulforhodamine B assay

A549 = assay type: functional; details: Homo sapiens, time 48 hrs
Description: Cytostatic activity against human A549 cells assessed as total growth inhibition measured after 48 hrs by sulforhodamine B assay

EKVX = assay type: functional; details: Homo sapiens, time 48 hrs
Description: Cytostatic activity against human EKVX cells assessed as total growth inhibition measured after 48 hrs by sulforhodamine B assay

NCI-H322M [15] = assay type: functional; details: Homo sapiens, time 48 hrs; remark: listed apart in the source
Description: Cytostatic activity against human NCI-H322M cells assessed as total growth inhibition measured after 48 hrs by sulforhodamine B assay

HT-29 [16] = assay type: functional; details: Homo sapiens, time 48 hrs; remark: listed apart in the source
Description: Cytostatic activity against human HT-29 cells assessed as total growth inhibition measured after 48 hrs by sulforhodamine B assay

SW-620 [17] = assay type: functional; details: Homo sapiens, time 48 hrs; remark: listed apart in the source
Description: Cytostatic activity against human SW620 cells assessed as total growth inhibition measured after 48 hrs by sulforhodamine B assay

SF-295 [18] = assay type: functional; details: Homo sapiens, time 48 hrs; remark: listed apart in the source
Description: Cytostatic activity against human SF-295 cells assessed as total growth inhibition measured after 48 hrs by sulforhodamine B assay

MDA-MB-435 = assay type: functional; details: Homo sapiens, time 48 hrs
Description: Cytostatic activity against human MDA-MB-435 cells assessed as total growth inhibition measured after 48 hrs by sulforhodamine B assay

SK-MEL-28 [19] = assay type: functional; details: Homo sapiens, time 48 hrs
Description: Cytostatic activity against human SK-MEL-28 cells assessed as total growth inhibition measured after 48 hrs by sulforhodamine B assay

UACC-62 = assay type: functional; details: Homo sapiens, time 48 hrs
Description: Cytostatic activity against human UACC-62 cells assessed as total growth inhibition measured after 48 hrs by sulforhodamine B assay

NCI/ADR-RES [20] = assay type: functional; details: Homo sapiens, time 48 hrs; remark: listed apart in the source
Description: Cytostatic activity against human NCI/ADR-RES cells assessed as total growth inhibition measured after 48 hrs by sulforhodamine B assay

RXF 393 = assay type: functional; details: Homo sapiens, time 48 hrs
Description: Cytostatic activity against human RXF 393 cells assessed as total growth inhibition measured after 48 hrs by sulforhodamine B assay

PC-3 = assay type: functional; details: Homo sapiens, time 48 hrs
Description: Cytostatic activity against human PC-3 cells assessed as total growth inhibition measured after 48 hrs by sulforhodamine B assay

MCF7 = assay type: functional; details: Homo sapiens, time 48 hrs
Description: Cytostatic activity against human MCF7 cells assessed as total growth inhibition measured after 48 hrs by sulforhodamine B assay

BT-549 [21] = assay type: functional; details: Homo sapiens, time 48 hrs; remark: listed apart in the source
Description: Cytostatic activity against human BT-549 cells assessed as total growth inhibition measured after 48 hrs by sulforhodamine B assay

MDA-MB-468 = assay type: functional; details: Homo sapiens, time 48 hrs
Description: Cytostatic activity against human MDA-MB-468 cells assessed as total growth inhibition measured after 48 hrs by sulforhodamine B assay

RPMI-8226 = details: Homo sapiens, RPMI-8226, 48 h, read-out: LC50
Description: Cytotoxicity activity against human RPMI-8226 cells assessed as reduction in cell growth measured after 48 hrs by sulforhodamine B assay

COLO 205 = details: Homo sapiens, COLO 205, 48 h, read-out: LC50
Description: Cytotoxicity activity against human COLO 205 cells assessed as reduction in cell growth measured after 48 hrs by sulforhodamine B assay

HCT-116 [22] = details: Homo sapiens, HCT-116, 48 h, read-out: LC50
Description: Cytotoxicity activity against human HCT-116 cells assessed as reduction in cell growth measured after 48 hrs by sulforhodamine B assay

HT-29 [23] = details: Homo sapiens, HT-29, 48 h, read-out: LC50
Description: Cytotoxicity activity against human HT-29 cells assessed as reduction in cell growth measured after 48 hrs by sulforhodamine B assay

KM12 = details: Homo sapiens, KM12, 48 h, read-out: LC50
Description: Cytotoxicity activity against human KM12 cells assessed as reduction in cell growth measured after 48 hrs by sulforhodamine B assay

SW-620 [24] = details: Homo sapiens, SW-620, 48 h, read-out: LC50
Description: Cytotoxicity activity against human SW620 cells assessed as reduction in cell growth measured after 48 hrs by sulforhodamine B assay

SF-268 [25] = details: Homo sapiens, SF-268, 48 h, read-out: LC50
Description: Cytotoxicity activity against human SF-268 cells assessed as reduction in cell growth measured after 48 hrs by sulforhodamine B assay

M14 [26] = details: Homo sapiens, M14, 48 h, read-out: LC50
Description: Cytotoxicity activity against human M14 cells assessed as reduction in cell growth measured after 48 hrs by sulforhodamine B assay

SK-MEL-28 [27] = details: Homo sapiens, SK-MEL-28, 48 h, read-out: LC50
Description: Cytotoxicity activity against human SK-MEL-28 cells assessed as reduction in cell growth measured after 48 hrs by sulforhodamine B assay

SK-MEL-5 [28] = details: Homo sapiens, SK-MEL-5, 48 h, read-out: LC50
Description: Cytotoxicity activity against human SK-MEL-5 cells assessed as reduction in cell growth measured after 48 hrs by sulforhodamine B assay

OVCAR-3 [29] = details: Homo sapiens, OVCAR-3, 48 h, read-out: LC50
Description: Cytotoxicity activity against human OVCAR-3 cells assessed as reduction in cell growth measured after 48 hrs by sulforhodamine B assay

NCI/ADR-RES [30] = details: Homo sapiens, 48 h, read-out: LC50
Description: Cytotoxicity activity against human NCI/ADR-RES cells assessed as reduction in cell growth measured after 48 hrs by sulforhodamine B assay

SK-OV-3 = details: Homo sapiens, SK-OV-3, 48 h, read-out: LC50
Description: Cytotoxicity activity against human SK-OV-3 cells assessed as reduction in cell growth measured after 48 hrs by sulforhodamine B assay

786-0 [31] = details: Homo sapiens, 786-0, 48 h, read-out: LC50
Description: Cytotoxicity activity against human 786-0 cells assessed as reduction in cell growth measured after 48 hrs by sulforhodamine B assay

DU-145 [32] = details: Homo sapiens, DU-145, 48 h, read-out: LC50
Description: Cytotoxicity activity against human DU-145 cells assessed as reduction in cell growth measured after 48 hrs by sulforhodamine B assay

MDA-MB-231 [33] = details: Homo sapiens, MDA-MB-231, 48 h, read-out: LC50
Description: Cytotoxicity activity against human MDA-MB-231 cells assessed as reduction in cell growth measured after 48 hrs by sulforhodamine B assay

BT-549 [34] = details: Homo sapiens, BT-549, 48 h, read-out: LC50
Description: Cytotoxicity activity against human BT-549 cells assessed as reduction in cell growth measured after 48 hrs by sulforhodamine B assay

CCOC(=O)c1ccc(N/N=C/c2cn(-c3ccc(S(N)(=O)=O)cc3)nc2-c2ccc(C)cc2)cc1
GI50 (SR): 2.65 µM | GI50 (HOP-92): 2.79 µM | GI50 (NCI-H322M [1]): 5.38 µM | GI50 (NCI-H522): 2.07 µM | GI50 (HCT-116 [2]): 3.11 µM | GI50 (HCT-15): 1.87 µM | GI50 (HT-29 [3]): 2.97 µM | GI50 (SW-620 [4]): 3.66 µM | GI50 (SF-268 [5]): 4.07 µM | GI50 (SF-295 [6]): 6.92 µM | GI50 (LOX IMVI): 1.71 µM | GI50 (M14 [7]): 1.75 µM | GI50 (SK-MEL-2): 11.8 µM | GI50 (SK-MEL-5 [8]): 2.99 µM | GI50 (OVCAR-3 [9]): 2.57 µM | GI50 (OVCAR-4): 7.08 µM | GI50 (OVCAR-5): 4.29 µM | GI50 (NCI/ADR-RES [10]): 2.94 µM | GI50 (786-0 [11]): 2.42 µM | GI50 (ACHN): 3.04 µM | GI50 (CAKI-1): 2.07 µM | GI50 (SN12C): 16 µM | GI50 (UO-31): 2.71 µM | GI50 (DU-145 [12]): 5.06 µM | GI50 (MDA-MB-231 [13]): 2.56 µM | GI50 (Hs-578T): 2.76 µM | GI50 (BT-549 [14]): 10.8 µM | GI50 (T47D): 3.89 µM | TGI (CCRF-CEM): 57.4 µM | TGI (MOLT-4): 11.5 µM | TGI (A549): 4.07 µM | TGI (EKVX): 3.17 µM | TGI (NCI-H322M [15]): 5.38 µM | TGI (HT-29 [16]): 8.38 µM | TGI (SW-620 [17]): 15.6 µM | TGI (SF-295 [18]): 24.8 µM | TGI (MDA-MB-435): 8.96 µM | TGI (SK-MEL-28 [19]): 19.6 µM | TGI (UACC-62): 21.5 µM | TGI (NCI/ADR-RES [20]): 10.9 µM | TGI (RXF 393): 4.19 µM | TGI (PC-3): 38.1 µM | TGI (MCF7): 7.77 µM | TGI (BT-549 [21]): 40.6 µM | TGI (MDA-MB-468): 16 µM | CC50 (RPMI-8226): > 100 µM | CC50 (COLO 205): > 100 µM | CC50 (HCT-116 [22]): 54.2 µM | CC50 (HT-29 [23]): > 100 µM | CC50 (KM12): 10.6 µM | CC50 (SW-620 [24]): > 100 µM | CC50 (SF-268 [25]): > 100 µM | CC50 (M14 [26]): 7.31 µM | CC50 (SK-MEL-28 [27]): 65.8 µM | CC50 (SK-MEL-5 [28]): 40.2 µM | CC50 (OVCAR-3 [29]): 62.6 µM | CC50 (NCI/ADR-RES [30]): > 100 µM | CC50 (SK-OV-3): > 100 µM | CC50 (786-0 [31]): 68 µM | CC50 (DU-145 [32]): > 100 µM | CC50 (MDA-MB-231 [33]): 58 µM | CC50 (BT-549 [34]): > 100 µM
